Blank lines part the entries; values can stand above or below the molecule they belong to.
What was measured:
[1] = target: T1, SrLDC (lysine decarboxylase from Selenomonas ruminantium) (Pseudoselenomonas ruminantium, UniProt O50657); assay: X-ray crystal structure, […] Å; type: binding; settings: PLP-complexed crystal soaked with 10 mM L-lysine for 30 min; cadaverine observed instead; pH 4.2; active site at dimer interface
T1 construct: gene ldc; residues 1-399 as printed (count probably includes the C-terminal 6xHis; sheet domain ends at Val393); pET-22b(+), C-terminal 6xHis kept; E. coli BL21(DE3)-T1R

[2] = target: T1, SrLDC (lysine decarboxylase from Selenomonas ruminantium); assay: isothermal titration calorimetry, independent binding model
[3] = target: Lysine decarboxylase from Selenomonas ruminantium (Selenomonas ruminantium); assay: crystal structure; three crystal forms: apo I (P43212, one molecule per asymmetric unit, dimer generated by crystallographic symmetry), apo II (C2, a dimer in the asymmetric unit), PLP/cadaverine complex (P6322, one molecule per asymmetric unit); hanging-drop vapor diffusion at 20°C; protein in 40 mM Tris-HCl, pH 8.0

T1 sequence (O50657 whole entry, the tested form may be a part): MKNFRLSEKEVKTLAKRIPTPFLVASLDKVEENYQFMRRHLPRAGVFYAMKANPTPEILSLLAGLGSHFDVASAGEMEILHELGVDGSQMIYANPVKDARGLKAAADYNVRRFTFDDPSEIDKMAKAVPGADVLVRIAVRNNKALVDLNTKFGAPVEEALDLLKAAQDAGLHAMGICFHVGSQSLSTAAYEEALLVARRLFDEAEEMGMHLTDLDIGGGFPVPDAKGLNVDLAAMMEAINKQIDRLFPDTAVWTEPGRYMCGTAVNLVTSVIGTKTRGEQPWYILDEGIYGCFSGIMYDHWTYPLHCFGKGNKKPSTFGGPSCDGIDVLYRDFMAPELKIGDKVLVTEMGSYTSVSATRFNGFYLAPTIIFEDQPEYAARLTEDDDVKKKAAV

Molecule: NCCCCCN [cadaverine]
X-ray crystal structure, 2.5 Å [1]: soaked the crystals of SrLDC complexed with PLP in L-lysine, a cadaverine molecule was observed

Kd [2]: 72 µM
Molecule: Cc1ncc(COP(=O)(O)O)c(C=O)c1O [PLP]

stoichiometry N [3]: 2
Molecule: Lysine decarboxylase from Selenomonas ruminantium (enzyme)

From publication PMC5115768, “Crystal Structure and Pyridoxal 5-Phosphate Binding Property of Lysine Decarboxylase from Selenomonas ruminantium” (PLoS ONE, 2016)
